Entries after “also recorded” stand apart in the source; their conditions may differ.
What was measured:
[1] = test system: Notch signalling via DL4:N2 ligand-receptor pair (Notch2); assay: DL4:N2 coculture assay, Notch driven luciferase reporter; format: cell-based; conditions: 10 μM, 24 hours
Description: Next Applicants investigated whether I3 could block pathway activation via other Notch receptors or is it specific to Notch1 signalling. To address this, a coculture assay was used where Notch signalling was activated via DL4:N1 or DL4:N2 ligand receptor pairs.

[2] = test system: RPMI 8402; assay: Alamar blue proliferation assay, RPMI 8402; format: cell-based, human; conditions: 10 μM, up to 6 days
Experimental: Human T-ALL cell lines RPMI 8402 and KOPTK1, and pancreatic cancer cell line PANC1 as well as nRas driven melanoma cells were seeded in a 96 well plate and treated with 10 μM concentration of 6-(4-Tert-Butylphenoxy)Pyridin-3-Amine (I3) and DAPT for several days. Their growth inhibitory effects were compared with cells treated with equal amount of DMSO. Using Alamar blue assay, the growth kinetics of RPMI 8402 and KOPTK1 were followed for upto 6 days, while PANC1 and nRas melanoma cells were monitored for 4 days. 6-(4-Tert-Butylphenoxy)Pyridin-3-Amine (I3) treatment of RPMI 8402, KOPTK1. […] Statistical analyses were done using student's t.test. *=p value<0.05. ns=not significant.
(§1) Alamarblue® proliferation assays were performed to determine the growth kinetics of Notch inhibitor treated cells. Alamar Blue® consists of a cell permeable substrate resazurin. In metabolically active and proliferating cells, resazurin is converted to resorufin due to an intrinsic reducing power of live cells and produces a red fluorescence. Therefore production of resorufin serves as an indicator of the viability of the cell population.
(§2) Proliferation assays were performed by seeding 5000 cells/well in a 96 well plate. Cells were treated with DMSO or Notch inhibitors for different time intervals. […] Alamarblue readout was taken using Tecan F500 (Tecan) multiplate reader. […]

[3] = test system: Notch-independent RAJI cells; assay: Alamar blue proliferation assay, RAJI; format: cell-based; conditions: control line with no known Notch mutations
Experimental: as §1
Proliferation assays were performed by seeding 5000 cells/well in a 96 well plate. Cells were treated with DMSO or Notch inhibitors for different time intervals. Each treatment for every time interval was carried out in 8 replicates. To determine the growth kinetics, 10 μl of Alamar Blue® (Invitrogen) was added to each well and incubated for 4 hours. Alamarblue readout was taken using Tecan F500 (Tecan) multiplate reader.
As treatment of the human T-ALL cell lines and PANC1 pancreatic cancer cell line with 6-(4-Tert-Butylphenoxy)Pyridin-3-Amine (I3) induced a downregulation of Notch signalling, Applicants questioned whether this inhibition of the pathway translates into growth arrest in cancer cells. To this end, RPMI 8402, KOPTK1, PANC1 and nRas driven melanoma cell lines were grown in the presence or absence of 6-(4-Tert-Butylphenoxy)Pyridin-3-Amine (I3) for several days and their proliferative index was measured using the Alamar blue assay. […]

[4] = test system: DND41-NICD cells; assay: Alamar blue proliferation assay, DND41-NICD; format: cell-based, human; conditions: over 5 days
Experimental: (§3) FIGS. 5A-5E show 6-(4-Tert-Butylphenoxy)Pyridin-3-Amine (I3) blocks NICD dependent growth of human cancer cells. […] Western blot analyses were carried out for Hes1 protein using Hes1 specific antibodies. […] Growth kinetics of the parental cell line was followed over 5 days using Alamar blue readout. […] This mutation renders this cell line insensitive to γ-secretase inhibitor treatment. […] The cells were treated with DMSO, γ-secretase inhibitor DAPT and I3 for 6 days. Alamar blue readout was taken at day 0, day 2, day 4 and day 6. Eight replicates were used for each treatment and time point. […] P values were calculated using Student's t.test. *=p value<0.05. ns=not significant.
Alamarblue® proliferation assays were performed to determine the growth kinetics of Notch inhibitor treated cells. […] In metabolically active and proliferating cells, resazurin is converted to resorufin due to an intrinsic reducing power of live cells and produces a red fluorescence. […]
Proliferation assays were performed by seeding 5000 cells/well in a 96 well plate. […] Alamarblue readout was taken using Tecan F500 (Tecan) multiplate reader.
6-(4-Tert-Butylphenoxy)Pyridin-3-Amine (I3) can block NICD mediated activation of the Notch pathway (FIGS. 1A-D). […] In addition, these two cell lines were also monitored over several days for anti-proliferative effects of 6-(4-Tert-Butylphenoxy)Pyridin-3-Amine (I3) and DAPT.

[5] = test system: HCC1187 human breast cancer cell line; assay: Alamar blue proliferation assay, HCC1187; format: cell-based; conditions: 6 days
Experimental: as §3, §1, §2

[6] = test system: C2C12 myoblasts; assay: C2C12 myoblast differentiation assay; format: cell-based; conditions: growth medium (10% serum), 3 days
Experimental: C2C12 cells were grown on collagen-coated cover slip in the presence of growth media (10% serum). To induce myoblast differentiation, cells were grown to 100% confluency for 3 days in the presence of differentiation media (2% horse serum) or in the presence of growth media+Notch inhibitors. After 3 days, cells were washed with 1× ice-cold PBS and fixed with 4% PFA. Immunofluorescence staining was performed using anti-MHC antibody as explained in the section 2.2.6 (Immunofluorescence staining).
To further confirm the Notch inhibitory potential of 6-(4-Tert-Butylphenoxy)Pyridin-3-Amine (I3) in different systems, C2C12 myoblast differentiation was used as a functional assay. The Notch pathway activation in C2C12 myoblasts retains them in an undifferentiated state, while abrogation of Notch signalling induces their differentiation. C2C12 myoblasts were treated with DMSO, 6-(4-Tert-Butylphenoxy)Pyridin-3-Amine (I3) and DAPT and grown to 100% confluency for 3 days. After three days, cells were fixed and stained with antibodies against Myosin Heavy Chain (MHC) protein. Cell nuclei were counterstained with DAPI.

[7] = test system: Notch signalling via DL4:N1 ligand-receptor pair (Notch1); assay: DL4:N1 coculture assay, Notch driven luciferase reporter; format: cell-based, mouse; conditions: 24 hours; for Notch signalling activation (Notch driven luciferase), concentration dependence: 2, 5 and 10 μM

Row | SMILES | DL4:N2 (Notch2) driven pathway activation [1] | proliferation (Alamar blue) [2] | proliferation [3] | proliferation (Alamar blue) [4] | proliferation (Alamar blue) [5] | differentiation into MHC positive myotubes [6] | Notch signalling activation (Notch driven luciferase), concentration dependence [7] | IC50 value, Notch signalling in DL4:N1 coculture assay ([7]; increasing concentration 2-10 μM)
1 | C[C@H](NC(=O)Cc1cc(F)cc(F)c1)C(=O)N[C@H](C(=O)OC(C)(C)C)c1ccccc1 [DAPT, N—[N-(3,5-difluorophenacetyl-Lalanyl)]-(S)-phenylglycine t-butyl ester, reference compound] | block Notch1 and Notch2 induced pathway activation | induced a significant proliferation block | neither DAPT nor 6-(4-Tert-Butylphenoxy)Pyridin-3-Amine (I3) had any effect on the proliferation | did not have a significant impact on their proliferation | did not inhibit proliferation; also recorded: did not alter the growth kinetics | started to differentiate into multinucleated MHC positive myotubes | causes a concentration dependent decrease in Notch signalling activation | –
2 | CC(C)(C)c1ccc(Oc2ccc(N)cn2)cc1 [I3, 6-(4-Tert-Butylphenoxy)Pyridin-3-Amine] | caused an inhibition of Notch signalling via both DL4:N1 and DL4:N2 ligand-receptor pairs; also recorded: block Notch1 and Notch2 induced pathway activation | induced a significant proliferation block; also recorded: caused a significant reduction in their growth potential | neither DAPT nor 6-(4-Tert-Butylphenoxy)Pyridin-3-Amine (I3) had any effect on the proliferation | induced a proliferation arrest; also recorded: able to block proliferation of NICD overexpressing leukemic cell lines which are resistant to DAPT | significantly induced a proliferation block; also recorded: caused statistically significant inhibition of cell proliferation | started to differentiate into multinucleated MHC positive myotubes; also recorded: can induce differentiation of C2C12 cells into MHC expressing multinucleated myotubes | blocks Notch signalling in a concentration dependent manner; also recorded: causes a concentration dependent decrease in Notch signalling activation | in the lower μM range

From patent US10054581B1, “Inhibitors of notch signaling pathway and use thereof in treatment of cancers” (Ecole Polytechnique Federale de Lausanne (EPFL), priority 2011, dated 2018)
